Laboratory results taken from patent US9108921B2, “Therapeutic compounds and compositions” (AGIOS PHARMACEUTICALS, INC, priority 2014, dated 2015).

What was measured:
Assay type in all cases: biochemical
PKR WT = PKR WT (Homo sapiens, UniProt P30613); experiment: PKR WT enzymatic AC50 assay; conditions: wild type PKR
Procedure: (§1) • PKR or PKR mutant enzyme solution was diluted in assay buffer. • 2 μL of test compound was added into wells first, and then 180 μL reaction mix was added. • Reactions mixture with test compound was assembled except for ADP, and plates were stored for 60 minutes at room temperature. • 20 uL ADP was added to start reaction at room temperature and reaction progress was measured as changes in absorbance at 340 nm wavelength at room temperature.
(§2) Test Compound Preparation: • Test compound stock was made at 100× concentration in 100% DMSO (10 mM) • 1 to 3 dilutions were made for 11 points (i.e. 50 μl of first concentration added to 100 μl 100% DMSO to yield 3.33 mM, 50 μl of this added to 100 μl DMSO to yield 1.11 mM, and so forth) • 1 to 100 dilution into assay (2 μl in 200 μl) yielded starting concentration of 100 μM, decreasing 3 fold for 11 points. Assay Buffer: 100 mM KCl, 50 mM Tris 7.5, 5 mM MgCl2, 1 mM DTT, 0.03% BSA Reaction Mixture: PKR mutant enzyme: 80-400 ng/well; ADP: 0.22-1.65 mM; PEP: 0.1-0.5 mM; NADH: 180 uM; LDH: 0.5 units (Sigma#59023); DTT: 1 mM; BSA: 0.03%.

PKR R510Q = PKR R510Q (Homo sapiens, UniProt P30613, R510Q); experiment: PKR Mutant Assay, AC50 against PKR R510Q; conditions: mutant PKR R510Q enzyme
Chain of PKR R510Q (P30613 whole entry R510Q): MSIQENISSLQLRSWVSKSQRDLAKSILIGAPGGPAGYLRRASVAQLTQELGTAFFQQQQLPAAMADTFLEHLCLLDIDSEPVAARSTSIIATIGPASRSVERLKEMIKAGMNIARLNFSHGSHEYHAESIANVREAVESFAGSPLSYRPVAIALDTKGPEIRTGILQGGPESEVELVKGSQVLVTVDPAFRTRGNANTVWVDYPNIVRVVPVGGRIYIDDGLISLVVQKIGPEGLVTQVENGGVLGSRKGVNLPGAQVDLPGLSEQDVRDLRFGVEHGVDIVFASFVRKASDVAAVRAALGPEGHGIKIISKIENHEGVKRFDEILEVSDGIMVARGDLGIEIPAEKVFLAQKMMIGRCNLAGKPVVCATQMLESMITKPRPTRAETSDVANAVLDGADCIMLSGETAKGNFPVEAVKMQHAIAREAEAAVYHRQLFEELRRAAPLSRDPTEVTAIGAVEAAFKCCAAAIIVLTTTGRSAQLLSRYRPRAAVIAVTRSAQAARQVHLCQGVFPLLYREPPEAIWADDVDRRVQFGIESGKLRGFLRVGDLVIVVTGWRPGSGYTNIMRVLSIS
Procedure: as §1, §2

PKR R532W = PKR R532W (Homo sapiens, UniProt P30613, R532W); experiment: PKR Mutant Assay, AC50 against PKR R532W; conditions: mutant PKR R532W enzyme
Chain of PKR R532W (P30613 whole entry R532W): as the sequence (P30613 whole entry R510Q) above, with Q510R, R532W counted along it
Procedure: as §1, §2

Chain of PKR WT (P30613 whole entry): as the sequence (P30613 whole entry R510Q) above, with Q510R counted along it

| Compound | AC50 (PKR WT) | AC50 (PKR R510Q) | AC50 (PKR R532W) |
| --- | --- | --- | --- |
| O=C(c1c(F)cc(NS(=O)(=O)c2cccc3cccnc23)cc1F)N1CCC(O)(c2ccccc2Cl)CC1 [Compound 232, N-(4-(4-(2-chlorophenyl)-4-hydroxypiperidine-1-carbonyl)-3,5-difluorophenyl)quinoline-8-sulfonamide] | 101 to 1000 nM | 101 to 1000 nM | 101 to 1000 nM |
| O=C(c1ccc(NS(=O)(=O)c2ccc(F)c3nccnc23)cc1)N1CCC(O)(c2ccccc2Cl)CC1 [Compound 234, N-(4-(4-(2-chlorophenyl)-4-hydroxypiperidine-1-carbonyl)phenyl)-8-fluoroquinoxaline-5-sulfonamide] | 101 to 1000 nM | 101 to 1000 nM | 101 to 1000 nM |
| O=C(c1ccc(NS(=O)(=O)c2cccc3cccnc23)cc1)N1CCC(CO)(c2ccccc2)CC1 [Compound 238] | 101 to 1000 nM | 1010 to 10000 nM | 101 to 1000 nM |
| O=C(c1ccc(NS(=O)(=O)c2cccc3csnc23)cc1)N1CCC(O)(c2ccccc2Cl)CC1 [Compound 244, N-(4-(4-(2-chlorophenyl)-4-hydroxypiperidine-1-carbonyl)phenyl)benzo[c]isothiazole-7-sulfonamide] | 101 to 1000 nM | 1010 to 10000 nM | 101 to 1000 nM |
| O=C(c1ccc(NS(=O)(=O)c2cccc3nccnc23)c(F)c1)N1CCC(O)(c2ccccc2Cl)CC1 [Compound 251, N-(4-(4-(2-chlorophenyl)-4-hydroxypiperidine-1-carbonyl)-2-fluorophenyl)quinoxaline-5-sulfonamide] | 101 to 1000 nM | 101 to 1000 nM | 101 to 1000 nM |
| N#Cc1ccc(C2(O)CCN(C(=O)c3ccc(NS(=O)(=O)c4cccc5cccnc45)cc3)CC2)cc1 [Compound 255, N-[4-[4-(4-cyanophenyl)-4-hydroxy-piperidine-1-carbonyl]phenyl]quinoline-8-sulfonamide] | 101 to 1000 nM | 1010 to 10000 nM | 101 to 1000 nM |
| Nc1c(F)ccc(S(=O)(=O)Nc2ccc(C(=O)N3CCC(O)(c4ccccc4Cl)CC3)cc2)c1N [Compound 256, 2,3-diamino-N-(4-(4-(2-chlorophenyl)-4-hydroxypiperidine-1-carbonyl)phenyl)-4-fluorobenzenesulfonamide] | 101 to 1000 nM | 1010 to 10000 nM | 101 to 1000 nM |
| O=C(c1ccc(NS(=O)(=O)c2cccc3nc(F)ccc23)cc1)N1CCC(O)(c2ccccc2Cl)CC1 [Compound 259, N-(4-(4-(2-chlorophenyl)-4-hydroxypiperidine-1-carbonyl)phenyl)-2-fluoroquinoline-5-sulfonamide] | 101 to 1000 nM | 1010 to 10000 nM | 101 to 1000 nM |
| N#Cc1cc(NS(=O)(=O)c2cccc3cccnc23)ccc1C(=O)N1CCC(O)(c2ccccc2)CC1 [Compound 261, N-(3-cyano-4-(4-hydroxy-4-phenylpiperidine-1-carbonyl)phenyl)quinoline-8-sulfonamide] | 101 to 1000 nM | 101 to 1000 nM | 101 to 1000 nM |
| O=C(c1ccc(NS(=O)(=O)c2cccc3nccnc23)c(F)c1)N1CCC(O)(c2cccc(F)c2F)CC1 [Compound 262, N-(4-(4-(2,3-difluorophenyl)-4-hydroxypiperidine-1-carbonyl)-2-fluorophenyl)quinoxaline-5-sulfonamide] | 101 to 1000 nM | 101 to 1000 nM | 101 to 1000 nM |
| O=C(c1ccc(NS(=O)(=O)c2cccc3cccnc23)c(OC(F)F)c1)N1CCC(O)(c2ccccc2Cl)CC1 [Compound 263, N-(4-(4-(2-chlorophenyl)-4-hydroxypiperidine-1-carbonyl)-2-(difluoromethoxy)phenyl)quinoline-8-sulfonamide] | 101 to 1000 nM | 101 to 1000 nM | 101 to 1000 nM |
| N#Cc1ccccc1C1(O)CCN(C(=O)c2ccc(NS(=O)(=O)c3cccc4cccnc34)cc2)CC1 [Compound 266, N-(4-(4-(2-cyanophenyl)-4-hydroxypiperidine-1-carbonyl)phenyl)quinoline-8-sulfonamide] | 101 to 1000 nM | 1010 to 10000 nM | 101 to 1000 nM |
| CN1C(=O)C=C2C=C(S(=O)(=O)Nc3ccc(C(=O)N4CCC(O)(Cc5ccccc5)CC4)cc3)C=CC21 (stereo not drawn) [Compound 268] | 101 to 1000 nM | 1010 to 10000 nM | 101 to 1000 nM |
| O=C(c1ccc(NS(=O)(=O)c2cccc3cccnc23)c(OC(F)(F)F)c1)N1CCC(O)(c2ccccc2Cl)CC1 [Compound 270] | 101 to 1000 nM | 1010 to 10000 nM | 101 to 1000 nM |
| O=C(c1ccc(NS(=O)(=O)c2cccc3scnc23)cc1)N1CCC(O)(c2ccccc2-c2ccccc2Cl)CC1 [Compound 271] | 101 to 1000 nM | 1010 to 10000 nM | 101 to 1000 nM |
| N#Cc1cc(C(=O)N2CCC(O)(c3ccccc3Cl)CC2)ccc1NS(=O)(=O)c1cccc2cccnc12 [Compound 273] | 101 to 1000 nM | 1010 to 10000 nM | 101 to 1000 nM |
| COc1cccc(C2(O)CCN(C(=O)c3ccc(NS(=O)(=O)c4cccc5cccnc45)cc3)CC2)c1 [Compound 276] | 101 to 1000 nM | 1010 to 10000 nM | 101 to 1000 nM |

Next, values leading:

| AC50 (PKR WT) | AC50 (PKR R510Q) | AC50 (PKR R532W) | Compound |
| --- | --- | --- | --- |
| 101 to 1000 nM | 101 to 1000 nM | 101 to 1000 nM | O=C(c1ccc(NS(=O)(=O)c2cccc3scnc23)cc1)N1CCC(O)(CCC(F)(F)F)CC1 [Compound 233, N-(4-(4-hydroxy-4-(3,3,3-trifluoropropyl)piperidine-1-carbonyl)phenyl)benzo[d]thiazole-4-sulfonamide] |
| 101 to 1000 nM | 101 to 1000 nM | 101 to 1000 nM | O=C(c1ccc(NS(=O)(=O)c2cccc3scnc23)cc1)N1CCC(O)(CCC(F)F)CC1 [Compound 235, N-(4-(4-(3,3-difluoropropyl)-4-hydroxypiperidine-1-carbonyl)phenyl)benzo[d]thiazole-4-sulfonamide] |
| 101 to 1000 nM | 101 to 1000 nM | 101 to 1000 nM | CC(C)CC1(O)CCN(C(=O)c2ccc(NS(=O)(=O)c3ccc(F)c4scnc34)cc2)CC1 [Compound 240, 7-fluoro-N-(4-(4-hydroxy-4-isobutylpiperidine-1-carbonyl)phenyl)benzo[d]thiazole-4-sulfonamide] |
| 101 to 1000 nM | 101 to 1000 nM | 101 to 1000 nM | CC(C)CC1(O)CCN(C(=O)c2ccc(NS(=O)(=O)c3ccc(F)c4nccnc34)cc2)CC1 [Compound 242] |
| 101 to 1000 nM | 1010 to 10000 nM | < 100 nM | CCOCC1(O)CCN(C(=O)c2ccc(NS(=O)(=O)c3cccc4cccnc34)cc2)CC1 [Compound 246, N-(4-(4-(ethoxymethyl)-4-hydroxypiperidine-1-carbonyl)phenyl)quinoline-8-sulfonamide] |
| 101 to 1000 nM | 1010 to 10000 nM | 101 to 1000 nM | O=C(c1ccc(NS(=O)(=O)c2cccc3cccnc23)cc1)N1CCC(O)(c2ccnc(F)c2)CC1 [Compound 247, N-[4-[4-(2-fluoropyridin-4-yl)-4-hydroxy-piperidine-1-carbonyl]phenyl]quinoline-8-sulfonamide] |
| 101 to 1000 nM | 1010 to 10000 nM | 101 to 1000 nM | O=C(c1ccc(NS(=O)(=O)c2cccc3cccnc23)cc1)N1CCC(O)(CCCO)CC1 [Compound 253, N-(4-(4-hydroxy-4-(3-hydroxypropyl)piperidine-1-carbonyl)phenyl)quinoline-8-sulfonamide] |
| 101 to 1000 nM | 101 to 1000 nM | 101 to 1000 nM | CC(C)CC1(O)CCN(C(=O)c2ccc(NS(=O)(=O)c3ccc(F)c(N)c3N)cc2)CC1 [Compound 254, 2,3-diamino-4-fluoro-N-(4-(4-hydroxy-4-isobutylpiperidine-1-carbonyl)phenyl)benzenesulfonamide] |
| 101 to 1000 nM | 1010 to 10000 nM | 101 to 1000 nM | CC(C)CC1(O)CCN(C(=O)c2ccc(NS(=O)(=O)c3cccc4csnc34)cc2)CC1 [Compound 257] |
| 101 to 1000 nM | 101 to 1000 nM | 101 to 1000 nM | CC(C)CC1(O)CCN(C(=O)c2ccc(NS(=O)(=O)c3cccc4cccnc34)c(C(F)F)c2)CC1 [Compound 258] |
| 101 to 1000 nM | 1010 to 10000 nM | 101 to 1000 nM | Cc1cccc(C2(O)CCN(C(=O)c3ccc(NS(=O)(=O)c4cccc5cccnc45)cc3)CC2)n1 [Compound 265, N-[4-[4-hydroxy-4-(6-methylpyridin-2-yl)piperidine-1-carbonyl]phenyl]quinoline-8-sulfonamide] |
| 101 to 1000 nM | 1010 to 10000 nM | 101 to 1000 nM | CCC1(O)CCN(C(=O)c2ccc(NS(=O)(=O)c3cccc4cccnc34)cc2)CC1 [Compound 267] |
| 101 to 1000 nM | 1010 to 10000 nM | 101 to 1000 nM | CC(C)CC1(O)CCN(C(=O)c2ccc(NS(=O)(=O)c3csc4cccnc34)cc2)CC1 [Compound 269] |
| 101 to 1000 nM | 1010 to 10000 nM | 101 to 1000 nM | O=C(c1ccc(NS(=O)(=O)c2cccc3cccnc23)cc1)N1CCC(O)(Cc2cccnn2)CC1 [Compound 272] |
| 101 to 1000 nM | 1010 to 10000 nM | 101 to 1000 nM | O=C(c1ccc(NS(=O)(=O)c2cccc3cccnc23)cc1)N1CCC(O)(CCO)CC1 [Compound 274] |
| 101 to 1000 nM | 1010 to 10000 nM | 101 to 1000 nM | CC(O)CC1(O)CCN(C(=O)c2ccc(NS(=O)(=O)c3cccc4cccnc34)cc2)CC1 (stereo not drawn) [Compound 275] |
